Experimental data from patent publication US8067422B2, “Crystal form of phenylamino pyrimidine derivatives” (Natco Pharma Limited, priority 2008, dated 2011).

How the values were obtained:
[1] = system: ZR71 breast cancer cells; assay: Matrigel invasion assay (modified Boyden chamber), ZR-71; assay type: cell-based; settings: ZR-71
Description: (§1) The in vitro invasiveness of 4910, 5310 and U87 glioma cells and MDAMB231 and ZR71 breast cancer cells in the presence of specified concentrations of compounds were assessed using a modified Boyden chamber assay. Cells were treated with these compounds for 48 h. 1×10^6 cells were suspended in 600 μl of serum-free medium supplemented with 0.2% BSA and placed in the upper compartment of the transwell chambers (Corning Costar Fischer Scientific Cat #07-200-158, Pittsburgh Pa.) coated with Matrigel (0.7 mg/ml). The lower compartment of the chamber was filled with 200 μl of serum medium and the cells were allowed to migrate for 24 h. After incubation, the cells were fixed and stained with Hema-3 and quantified as previously described (Mohanam et al. 1993). The migrated cells were imaged microscopically to determine the reduction in invasiveness induced by the compounds of this invention.

[2] = system: MDAMB231 breast cancer cells; assay: Matrigel invasion assay (modified Boyden chamber), MDA-MB-231; assay type: cell-based; settings: MDA-MB-231
Description: as §1

[3] = system: 4910 glioma cells; assay: Matrigel invasion assay (modified Boyden chamber), 4910; assay type: cell-based, human
Description: as §1

[4] = system: 5310 glioma cells; assay: Matrigel invasion assay (modified Boyden chamber), 5310; assay type: cell-based; settings: 5310
Description: as §1

[5] = system: U87 glioma cells; assay: Matrigel invasion assay (modified Boyden chamber), U87; assay type: cell-based; settings: U87
Description: as §1

[6] = system: U87 glioma cells; assay: In vitro angiogenic assay, U87 conditioned media on human dermal endothelial cells; assay type: cell-based
Description: The in vitro angiogenesis of 4910, 5310 and U87 glioma cells and MDAMB231 and ZR71 breast cancer cells in the presence of specified concentrations of compounds were determined as follows, cells (2×10^4/well) were seeded in 8-well chamber slides and were treated with various concentrations of test compounds. After a 24 h incubation period, the conditioned media was removed and added to a 4×10^4 human dermal endothelial cell (monolayer in 8-well chamber slides) and the human dermal endothelial cells were allowed to grow for 72 h. Cells were then fixed in 3.7% formaldehyde and stained with H&E and photographed.

[7] = system: K562 luciferase expressing cells; assay: Leukemic survival study in nude mice implanted with K562 luciferase expressing cells; assay type: in vivo
From the text: K562 luciferase expressing cells were implanted intraperitoneally into nude mice; the mice were scanned using the xenogeny IVIS image station after ip injections of luciferin does determine implantations. Drug treatment was started as in previous studies day 15 after implantation. The animals were given treatment till day 42, after which drug treatment was stopped and survival of the animals determined as per the animal care regulations. […] Drug treatment was withdrawn on day 42 post implantation and survival of animals determined.

[8] = in vivo; settings: mouse, po

In the case of Cc1ccc(NC(=O)c2cc(C(F)(F)F)cc(C(F)(F)F)c2)cc1Nc1nccc(-c2cccnc2)n1 [AN019, (3,5-bis trifluoromethyl)-N-[4-methyl-3-(4-pyridin-3yl-pyrimidin-2ylamino)-phenyl]-benzamide], the “±Change in invasion after radiation” value [1] is reported as −14%, the “±Change in invasion after radiation” value [2] is reported as −30% and the “±Change in invasion after radiation” value [3]; 4910 is reported as −27%. For the same molecule, the “+Radiation % Invasion” value ([3]; 4910, with radiation, 48 h treatment) was 15%, the “±Change in invasion after radiation” value [4] was “+1%” and the “±Change in invasion after radiation” value [5] was 0%. The Inhibition of angiogenesis ([6]; after radiation) was “significant retardation in angiogenesis”, the Inhibition of angiogenesis ([6]; without radiation) was “significant retardation in angiogenesis” and the “Blast cell count from blood smears, effectiveness after withdrawal of drug treatment” value ([7]; drug treatment withdrawn on day 42) was “showed effectiveness after withdrawal of drug treatment”. For the same molecule, the Mortality ([7]; treatment day 15 to day 42, then withdrawn, 10 animals) was “did not show any mortality” and the LD50 [8] was 1130 mg/kg.
